Measured values: US10894784B2, “Heteroarylbenzimidazole compounds” (BAYER PHARMA AKTIENGESELLSCHAFT, priority 2015, dated 2021)

Target: TBK1 (Homo sapiens (Human), UniProt Q9UHD2)
Assay: TBK1 low ATP kinase assay (in vitro assay 1)
Assay type: biochemical
Settings: in vitro assay 1, read-out: TBK1 low ATP kinase assay IC50

TBK1, sequence (Q9UHD2 whole entry): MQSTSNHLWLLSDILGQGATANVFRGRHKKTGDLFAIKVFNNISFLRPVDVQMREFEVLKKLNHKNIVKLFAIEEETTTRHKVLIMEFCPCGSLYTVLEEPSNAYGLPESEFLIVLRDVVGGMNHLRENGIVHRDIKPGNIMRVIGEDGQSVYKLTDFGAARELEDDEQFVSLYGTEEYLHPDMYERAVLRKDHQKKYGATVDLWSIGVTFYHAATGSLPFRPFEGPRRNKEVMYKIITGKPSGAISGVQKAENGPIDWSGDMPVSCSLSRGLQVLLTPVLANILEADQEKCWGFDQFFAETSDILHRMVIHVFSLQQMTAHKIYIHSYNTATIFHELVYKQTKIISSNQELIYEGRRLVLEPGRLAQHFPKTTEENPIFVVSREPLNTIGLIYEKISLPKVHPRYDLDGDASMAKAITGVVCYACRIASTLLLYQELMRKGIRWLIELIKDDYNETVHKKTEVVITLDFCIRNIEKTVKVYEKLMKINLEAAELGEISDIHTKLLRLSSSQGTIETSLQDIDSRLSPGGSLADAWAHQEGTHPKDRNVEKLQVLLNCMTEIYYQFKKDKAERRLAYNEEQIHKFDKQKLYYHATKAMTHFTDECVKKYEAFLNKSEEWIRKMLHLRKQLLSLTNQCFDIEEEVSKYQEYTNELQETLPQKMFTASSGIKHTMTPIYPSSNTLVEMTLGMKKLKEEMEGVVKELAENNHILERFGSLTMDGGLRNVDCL

IC50 [nM] | SMILES
18 | CN(C)c1cc(-c2ccc3nc(Nc4cc(CN5CCN(C(=O)OC(C)(C)C)CC5)ccn4)[nH]c3c2)ncn1 [Example 143.01, tert-butyl 4-{[2-({6-[6-(dimethylamino)pyrimidin-4-yl]-1H-benzimidazol-2-yl}amino)pyridin-4-yl]methyl}piperazine-1-carboxylate]
2.3 | O=C(CC(F)(F)F)N1CCN(Cc2ccnc(Nc3nc4ccc(-c5cc(N6CCCC6)ncn5)cc4[nH]3)c2)CC1 [Example 93.01, 3,3,3-trifluoro-1-(4-{[2-({6-[6-(pyrrolidin-1-yl)pyrimidin-4-yl]-1H-benzimidazol-2-yl}amino)pyridin-4-yl]methyl}piperazin-1-yl)propan-1-one]
0.819 | CC(c1ccnc(Nc2nc3ccc(-c4cc(N5CCCC5)ncn4)cc3[nH]2)c1)N1CCN(C(=O)C2(C(F)(F)F)CC2)CC1 (single isomer, unassigned) [Example 117.04, (4-{(1R or 1S)-1-[2-({6-[6-(pyrrolidin-1-yl)pyrimidin-4-yl]-1H-benzimidazol-2-yl}amino)pyridin-4-yl]ethyl}piperazin-1-yl)[1-(trifluoromethyl)cyclopropyl]methanone]
32.4 | COc1cncnc1-c1ccc2nc(Nc3cc(CN4CCN(S(=O)(=O)C5CC5)CC4)ccn3)[nH]c2c1 [Example 35.01.12, N-(4-{[4-(cyclopropylsulfonyl)piperazin-1-yl]methyl}pyridin-2-yl)-6-(5-methoxypyrimidin-4-yl)-1H-benzimidazol-2-amine]
1.6 | CC(c1ccnc(Nc2nc3ccc(-c4cnn(CC5CC5)c4)c(F)c3[nH]2)c1)N1CCN(C(=O)C2CC2)CC1 (single isomer, unassigned) [Example 121.03, cyclopropyl(4-{(1R or 1S)-1-[2-({6-[1-(cyclopropylmethyl)-1H-pyrazol-4-yl]-7-fluoro-1H-benzimidazol-2-yl}amino)pyridin-4-yl]ethyl}piperazin-1-yl)methanone]
58.4 | COc1c(OCC2CC2)ncnc1-c1ccc2nc(Nc3cc(CN4CCN(C(=O)CC(F)(F)F)CC4)ccn3)[nH]c2c1 [Example 65.01.02, 1-(4-{[2-({6-[6-(cyclopropylmethoxy)-5-methoxypyrimidin-4-yl]-1H-benzimidazol-2-yl}amino)pyridin-4-yl]methyl}piperazin-1-yl)-3,3,3-trifluoropropan-1-one]
55.5 | Cc1cc(-c2ccc3nc(Nc4cc(CN5CCN(C(=O)CC6CC6)CC5)ccn4)[nH]c3c2)ccn1 [Example 01.04, 2-cyclopropyl-1-{4-[(2-{[6-(2-methylpyridin-4-yl)-1H-benzimidazol-2-yl]amino}pyridin-4-yl)methyl]piperazin-1-yl}ethanone]
6.6 | O=C(CC(F)(F)F)N1CCN(Cc2ccnc(Nc3nc4ccc(-c5cc(NCC6CC6)ncn5)cc4[nH]3)c2)CC1 [Example 142.02, 1-[4-({2-[(6-{6-[(cyclopropylmethyl)amino]pyrimidin-4-yl}-1H-benzimidazol-2-yl)amino]pyridin-4-yl}methyl)piperazin-1-yl]-3,3,3-trifluoropropan-1-one]
61 | COc1c(NC2CCC2)ncnc1-c1ccc2nc(Nc3cc(C(C)N4CCN(C(=O)OC(C)(C)C)CC4)ccn3)[nH]c2c1 (single isomer, unassigned) [Example 114.01, tert-butyl 4-{(1R or 1S)-1-[2-({6-[6-(cyclobutylamino)-5-methoxypyrimidin-4-yl]-1H-benzimidazol-2-yl}amino)pyridin-4-yl]ethyl}piperazine-1-carboxylate]
22 | CC(C)(O)c1cc(-c2ccc3nc(Nc4cc(CN5CCN(C(=O)CC(F)(F)F)CC5)ccn4)[nH]c3c2)ncn1 [Example 96.02, 3,3,3-trifluoro-1-(4-{[2-({6-[6-(2-hydroxypropan-2-yl)pyrimidin-4-yl]-1H-benzimidazol-2-yl}amino)pyridin-4-yl]methyl}piperazin-1-yl)propan-1-one]
